According to patent US7718700B2, “Growth factor-binding compounds and methods of use” (Yale University, priority 2004, dated 2010):

Key:
[1] = tested on: A-549 xenografts; assay: Antitumor activity in the nude mouse A-549 tumor xenograft model; type: in vivo, nude mice; settings: for average tumor size: 3 weeks
Method: FIG. 6 illustrates that GFB204 inhibits A-549 xenografts growth in nude mice (FIG. 6). A-549 cells were implanted into the flanks of nude mice and when the tumors reached an average size of about 100 mm^3, the mice were randomized and treated either with vehicle (♦) or GFB204 at 1 mg/kg (▪) and 5 mg/kg (●), and tumor sizes measured as described under Materials and Methods. Tumors were processed two hours after the last i.p. injection for CD31 IHC staining as described under Materials and Methods.
Antitumor activity in the nude mouse tumor xenograft model. Nude mice (Charles River, Wilmington, Mass.) were maintained in accordance with the Institutional Animal Care and Use Committee (IACUC) procedures and guidelines. A-549 cells were harvested and resuspended in PBS, then injected s.c. into the right and left flanks (10×10^6 cells per flank) of 8 week old female nude mice as reported previously (Sun, J. et al. Cancer Res, 1999, 59:4919-26). When tumors reached about 100 mm^3, animals were dosed i.p. with 0.2 ml solution once daily. Control animals received a vehicle whereas treated animals were injected with GFB204 (1 or 5 mg/kg/day). The tumor volumes were determined by measuring the length (l) and the width (w) and calculating the volume (V=lw^2/2) as described previously (Sun, J. et al. Cancer Res, 1999, 59:4919-26). Statistical significance between control and treated animals were evaluated using Student's t-test.

[2] = tested on: A-549 xenografts; assay: CD31 IHC microvessel count in A-549 xenograft tumors; type: in vivo, nude mice; settings: 5 mg/Kg, tumors processed two hours after last i.p. injection
Method: FIGS. 7A-7B illustrates CD31 IHC staining as described under Materials and Methods for tumors processed two hours after the last i.p. injection for a control (FIG. 7A) and GFB204 (FIG. 7B). Quantification of microvessels density (400×) was determined as described under Materials and Methods. SE, standard error. FIGS. 7A and 7B Microvessel Count; FIG. 7A=11.3±1.9; FIG. 7B=2.6±0.9.
IHC study. On the termination day of antitumor experiments, the tumors were extracted and fixed in 10% neutral buffered formalin for 6 hours. After fixation, the tissue samples were processed into paraffin blocks. Tissue sections (4 μm thick) were obtained from the parablocks and stained with hematoxylin and eosin (H&E) using standard histological techniques. Tissue sections were also subjected to immunostaining for CD31 (BD Biosciences, San Diego, Calif.) using the avidin biotin peroxidase complex technique (Blaskovich, M. A. et al. Nat Biotechnol, 2000, 18:1065-70). Mouse monoclonal antibody was used at 1:50 dilution, following microwave antigen retrieval (four cycles of 5 minutes each on high in 0.1M citrate buffer).

[3] = tested on: Human middle cerebral artery endothelial cells; assay: VEGF-induced capillary network formation on Matrigel; type: cell-based; settings: Endothelial cell, VEGF 20 ng/ml
Method: FIGS. 4A-4C show the effects of GFB204 on angiogenesis in vitro. GFB204 inhibits capillary network formation in a dose-response manner (FIG. 4C). Human middle cerebral artery endothelial cells (5×10^4) were seeded onto Matrigel and the cells were incubated with VEGF in the presence (FIG. 4B) or absence (FIG. 4A) of GFB204 as described under Materials and Methods.
Capillary network formation. 200 μl of Matrigel was placed into each well of a 24-well culture plate at 4° C. and allowed to polymerize by incubation at 37° C. as described previously (Papadimitriou, E. et al. Biochem Biophys Res Commun, 2001, 282:306-13). Human middle cerebral artery endothelial cells (5×10^4) were seeded on the Matrigel in 1 ml of EBM containing VEGF (20 ng/ml). Each sample was photographed using a 10× objective lens, and quantified the total length of tube structures in each photograph using the Image Pro Plus software (Media Cybernetic, Inc., Md.).

[4] = tested on: adult human brain endothelial cells; assay: VEGF-dependent human brain endothelial cell migration (modified Boyden chamber); type: cell-based; settings: VEGF 20 ng/ml, 18 hours, read-out: IC50 VEGF-induced endothelial cell migration
Method: Migration of adult human brain endothelial cells was evaluated using a modified Boyden chamber assay as described in Materials and Methods. Vehicle control (FIG. 5A) or GFB204 (FIG. 5B) was added to 2% FBS-containing medium in the outer chamber, and the number of migrated cells to the VEGF-containing lower chamber was determined after an 18-hour incubation (FIG. 5C).
Human brain endothelial cell migration assay. Migration of adult human brain endothelial cells was evaluated using a modified Boyden chamber assay (BD BioCoat Matrigel Invasion Chamber) (Papadimitriou, E. et al. Biochem Biophys Res Commun, 2001, 282:306-13). The cells were plated at 4×10^4/ml onto an 8 μm pore size membrane coated with a thin layer of Matrigel basement membrane matrix. GFB204 was added to the medium in the outer chamber and the cells were cultured for 18 hours under VEGF-dependent condition in the lower chamber (VEGF 20 ng/ml). Non-invading cells were removed from the upper surface with a cotton swab. Membrane inserts were then fixed with 4% paraformaldehyde and stained with Crystal-Violet dye. The number of cells that migrated to the undersurface of the filters, was quantified by counting the cells migrated in randomly selected microscopic fields (10×). Samples were analyzed for significant differences using a Student's t-test for independent samples.

CCCCOc1c2cc(C(=O)Nc3cc(C(=O)O)cc(C(=O)OCc4ccccc4)c3)cc1Cc1cc(C(=O)Nc3cc(C(=O)O)cc(C(=O)OCc4ccccc4)c3)cc(c1OCCCC)Cc1cc(C(=O)Nc3cc(C(=O)O)cc(C(=O)OCc4ccccc4)c3)cc(c1OCCCC)Cc1cc(C(=O)Nc3cc(C(=O)O)cc(C(=O)OCc4ccccc4)c3)cc(c1OCCCC)C2 [GFB204]
average tumor size ([1]; 1 mg/kg i.p. once daily): 650±114 mm^3 | tumor growth inhibition ([1]; 1 mg/kg, not statistically significant): 15% | average tumor size ([1]; 5 mg/kg i.p. once daily): 284±108 mm^3 | tumor growth inhibition ([1]; 5 mg/kg, statistically significant (p<0.05)): 73% | microvessels per field (400×), CD31 staining [2]: 2.6±0.9 | IC50 [3]: 700 nM | IC50 [4]: 600 nM
